Experimental data as given in ChEMBL document CHEMBL1154755, “Discovery of 6alpha-ethyl-23(S)-methylcholic acid (S-EMCA, INT-777) as a potent and selective agonist for the TGR5 receptor, a novel target for diabesity” (J Med Chem, 2009).

How the values were obtained:
[1] = Metabolic stability in bile fistula rat model assessed as intact drug level recovered in bile at 1 umol/min/kg, iv over 1 hr; assay type: ADME, organism-based; settings: in vivo
[2] = Metabolic stability in human stool broth culture assessed as unmodified drug level after 12 hrs; assay type: ADME; settings: read-out: Stability
[3] = Metabolic stability in bile fistula rat model assessed as intact drug level recovered in bile at 1 umol/min/kg administered intraduodenally over 1 hr; assay type: ADME; settings: in vivo, other

| SMILES | Stability [1] [%Idose] | remaining at 12 h [2] [%] | Stability [3] [%Idose] |
| --- | --- | --- | --- |
| CC[C@H]1[C@@H](O)[C@@H]2[C@H](C[C@H](O)[C@]3(C)[C@@H]([C@H](C)C[C@H](C)C(=O)O)CC[C@@H]23)[C@@]2(C)CC[C@@H](O)C[C@@H]12 | 93 | > 95 | 94 |
| CC[C@H]1[C@@H](O)[C@@H]2[C@H](C[C@H](O)[C@]3(C)[C@@H]([C@H](C)C[C@@H](C)C(=O)O)CC[C@@H]23)[C@@]2(C)CC[C@@H](O)C[C@@H]12 | 65 | – | 68 |
| C[C@H](CCC(=O)O)[C@H]1CC[C@H]2[C@@H]3[C@H](O)C[C@@H]4C[C@H](O)CC[C@]4(C)[C@H]3CC[C@]12C [CHENODIOL] | 4 | – | 3 |
| C[C@H](CCC(=O)O)[C@H]1CC[C@H]2[C@@H]3[C@H](O)C[C@@H]4C[C@H](O)CC[C@]4(C)[C@H]3C[C@H](O)[C@]12C [CHOLIC ACID] | 8 | – | 12 |
